Counter-ions that a name gives are not always drawn.
How the values were obtained:
[1] = biological target: T1, recombinant Pf PMX (Plasmodium falciparum, UniProt Q8IAS0); test: PMX biochemical FRET assay (Rh2N fluorogenic substrate cleavage); details: 37 °C
T1 construct: made in house
Protocol: FRET Protease Assays. FRET protease assays were performed as previously described.[19, 20, 27, 28] Briefly, ten‐point 1 : 3‐fold dilution series of the compounds were prepared in 384‐well black low volume assay plates (Greiner) using an Echo555 (Labcyte). 10 mM compound stocks were transferred into assay plates such that the starting concentration was 90 μM (Pv PMV assays), 11.25 μM (renin, cathepsin D and BACE‐1 assays) or 100 nM and 10 μM (Pf PMX and Pf PMIX assays). All wells were backfilled to 200 nL DMSO such that the DMSO concentration remained constant across the assay plates (1 % final). All compound potency assays were conducted in 20 μL total volume. For each assay, 10 μL of recombinant enzymes in respective assay buffers (Table S2) were dispensed into compound containing assay plates using a Multidrop‐Combi dispenser and allowed to incubate for 15 min. Recombinant Pf PMX, Pf PMIX and Pv PMV were expressed as previously described,[23, 27, 28] and recombinant human aspartyl proteases were purchased commercially. 10 μL of the fluorogenic peptide substrates incubated at 37 °C for the duration and conditions noted in Table S2. Samples were excited at 340 nm and fluorescence emission measured at 492 nm using an Envision fluorescence plate reader (Perkin‐Elmer). The 0 % inhibition control contained DMSO alone (1 % final) and the 100 % inhibition control was in the absence of enzyme. […]
Table S2 . P rotease FRET assay conditions.
PMX as sa y PMIX PM V assay Renin assay Cathepsin D assay BA CE-1 assay E nzy me prot e as e 0.25 nM pro te a se 6 nM prot e as e q ua nti ty 0.1 nM pro t ea se 1.5 nM pro t ea se 2.5 nM pro t ea se 3 nM (Pro te os #R-001) ( Athe ns Re sea rc h (Sigma #S4195) […]
25mM so di um acetate, 100 mM 25 mM M E S, 25 m M 50 mM Tr is, 100 mM 100 mM so di u m 20 mM so dium Buffer acetate, 0.005% sodium chloride and Tris-HCl, 0.01% N aC l, 0. 1% Bri j-35, acetate 0.02% scetate, 0.05% […]
Sub str at e DABCYL- ( DA BC YL ) - DABCYL- DABCYL-(γ- Ab u) - E[E(EDANS)]KPIL […]

[2] = tested on: P. falciparum (Pf) 3D7 parasites; test: P. falciparum LDH viability assay; assay type: cell-based; details: for EC50: Plasmodium falciparum, 3D7, 72 h, LDH activity, 72 h at 37 °C, mean and SD of 3 independent experiments
Protocol: P. falciparum LDH Viability Assay. P. falciparum LDH viability assays were performed as previously described.[40] Briefly, a ten‐point 1 : 3‐fold dilution series of the compounds were pre‐dispensed in 384‐well assay plates (Grenier), and RPMI/AlbuMAX growth media inoculated with synchronized ring stage P. falciparum parasites. 10 mM compound stocks were transferred into the assay plates such that the starting concentration was 10 μM. Plates were incubated for 72 h and then frozen at −80 °C overnight. Lactate dehydrogenase (LDH) activity was quantified with APAD by measuring absorbance of NBT at 650 nm. Data were normalized to percent growth inhibition using the positive control of 0.1 % DMSO alone and the negative control of 100 nM chloroquine. Half‐maximal effective concentration (EC50) values were calculated by GraphPad Prism (8.0.2) software using a nonlinear regression four‐parameter fit analysis using a sigmoidal dose response (variable slope).

[3] = biological target: T2, cathepsin D (Homo sapiens, UniProt P07339); test: Cathepsin D FRET protease assay; assay type: biochemical; details: mean and SD of 4 replicate FRET experiments, 37 °C; highest concentration tested 11 μM
T2 construct: purchased Athens Research 16-12-030104

[4] = biological target: T3, renin (Homo sapiens, UniProt P00797); test: Renin FRET protease assay; assay type: biochemical; details: mean and SD of 4 replicate FRET experiments, 37 °C; highest concentration tested 11 μM
T3 construct: purchased Proteos R-001
T3 sequence (P00797 67-406): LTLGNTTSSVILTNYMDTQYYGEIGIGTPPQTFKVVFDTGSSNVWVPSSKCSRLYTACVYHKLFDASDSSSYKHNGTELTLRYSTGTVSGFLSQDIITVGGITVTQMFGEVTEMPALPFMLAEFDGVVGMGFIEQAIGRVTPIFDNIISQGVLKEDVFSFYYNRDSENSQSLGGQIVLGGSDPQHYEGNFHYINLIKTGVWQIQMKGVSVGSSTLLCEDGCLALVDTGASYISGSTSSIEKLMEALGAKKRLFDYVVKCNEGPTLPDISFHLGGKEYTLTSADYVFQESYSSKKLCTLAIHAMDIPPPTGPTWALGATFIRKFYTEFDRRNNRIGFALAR

[5] = tested on: P. falciparum 3D7 parasites; test: Asexual stage of arrest assay (Giemsa smears, SYBR green flow cytometry); assay type: cell-based
Protocol: Asexual stage of arrest phenotyping. Inhibition of PMX prevents parasites from egressing from the host erythrocyte and arrests asexual stage parasites at the late schizont stage. […] In this assay, highly synchronized asexual ring stage parasites were treated with ten times the EC50 of 38 and 49c (2) and the DMSO vehicle control. The parasite stage of arrest was analyzed by microscopy of Giemsa‐stained blood smears, while parasitemia was quantified by flow cytometry at 12, 24, 36 and 48 hours.
Stage Arrestment Assay. As previously described,[42] P. falciparum 3D7 parasites were synchronized using a 5 % D‐sorbitol solution prior to assay set‐up. Ring‐staged parasites were adjusted to a final parasitemia and haematocrit of 1 % and 2 %, respectively. Compounds were added to a final concentration of 10×EC50 which were replenished after 24 h. Plates were incubated at 37°C for 48 h and blood smears and 50 μL aliquots in triplicate were harvested every 12 h. Aliquots for flow cytometry analysis were fixed in 0.25 % glutaraldehyde for 30 min at room temperature before being washed in PBS and stored at 4 °C until completion of the assay. To determine parasitemia, fixed blood pellets were stained with 50 μL 2.5×SYBR Green (Invitrogen) for 30 min before being diluted with 180 μL of PBS. 100 000 cells for each sample were counted using an Attune Flow Cytometer (ThermoFisher Scientific). Blood smears were stained with Giemsa and morphology of parasites were examined using a Zeiss Axio Observer microscope.

[6] = Table 3, mean and SD of 4 replicate FRET experiments
[7] = recombinant PMX, fluorogenic substrate (Rh2N) cleavage, 4 h, mean and SD of 4 replicates (Tables 1, 2)

T1 sequence (Q8IAS0 222-573): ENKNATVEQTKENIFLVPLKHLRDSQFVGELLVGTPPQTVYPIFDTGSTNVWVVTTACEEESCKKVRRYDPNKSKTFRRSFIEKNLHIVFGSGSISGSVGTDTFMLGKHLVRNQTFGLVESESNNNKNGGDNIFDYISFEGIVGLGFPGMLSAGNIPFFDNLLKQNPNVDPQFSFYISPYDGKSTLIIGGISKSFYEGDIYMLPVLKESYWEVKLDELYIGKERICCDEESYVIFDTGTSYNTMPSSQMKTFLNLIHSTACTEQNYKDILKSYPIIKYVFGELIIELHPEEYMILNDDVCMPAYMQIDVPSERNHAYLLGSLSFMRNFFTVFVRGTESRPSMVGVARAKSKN
T2 sequence (P07339 65-412): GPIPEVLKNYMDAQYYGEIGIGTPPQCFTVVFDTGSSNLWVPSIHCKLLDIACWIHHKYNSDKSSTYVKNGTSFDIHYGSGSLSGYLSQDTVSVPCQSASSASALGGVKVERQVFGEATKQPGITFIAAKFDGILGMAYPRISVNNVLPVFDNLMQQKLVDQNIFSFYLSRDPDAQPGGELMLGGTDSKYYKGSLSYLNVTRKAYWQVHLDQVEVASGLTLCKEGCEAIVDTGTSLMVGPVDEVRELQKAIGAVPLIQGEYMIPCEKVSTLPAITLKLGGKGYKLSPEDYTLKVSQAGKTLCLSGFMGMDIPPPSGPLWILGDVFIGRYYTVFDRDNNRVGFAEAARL

Row | SMILES | IC50 [1, 6] [nM] | IC50 [1, 7] [nM] | EC50 [2] [nM] | IC50 [3] [nM] | IC50 [4] [nM] | merozoite egress / stage of arrest ([5]; 49c (2) at 10×EC50 (6 nM), Giemsa smears and flow cytometry, up to 48 h) | fold decrease in parasite activity compared to PMX inhibition ([2]; Pf 3D7 EC50 versus PMX IC50) [fold] | parasitemia / establishment of infection by flow cytometry ([5]; 38 at 10×EC50 (900 nM), SYBR green flow cytometry at 12, 24, 36, 48 h) | asexual parasite stage of arrest ([5]; 38 at 10×EC50 (900 nM), synchronized ring stage parasites, Giemsa smears, up to 48 h)
1 | C[C@@H](NC[C@@H](O)[C@H](Cc1ccccc1)NC(=O)c1ccc(C(=O)N2CCN(C)CC2)cc1)c1ccccc1 [Compd 2, reference compound] | 1 | 1 | 1 | > 11000 | > 11000 | inhibition of merozoite egress |  |  | 
2 | C[C@@H](NC[C@@H](O)[C@H](Cc1ccccc1)NC(=O)[C@H](CO)NC(=O)OCc1ccccc1)c1ccccc1 [Compd 38, Cbz‐Ser‐Phe‐HEA‐Bn(CH3)⋅TFA] | 60 | 60 | 90 | > 11000 | > 11000 |  | 2 | unable to establish infection beyond 36 h | arrests asexual parasites at the schizont stage

— article PMC9804387, “Substrate Peptidomimetic Inhibitors of P. falciparum Plasmepsin X with Potent Antimalarial Activity” (Chemmedchem, 2022)
